Source: PMC8952208, “Synthesis, Antiplasmodial, and Antileukemia Activity of Dihydroartemisinin–HDAC Inhibitor Hybrids as Multitarget Drugs” (Pharmaceuticals, 2022)
“Also recorded” adds a separate entry of the source.

Tests used:
[1] = biological target: T1, human HDAC1 (hHDAC1) (Homo sapiens, UniProt Q13547); assay: In vitro human HDAC1 assay (ZMAL substrate); type: biochemical
T1 construct: purchased BPS Bioscience Inc. 50051
Description: OptiPlate-96 black microplates (Perkin Elmer Inc., Waltham, MA, USA) were used with an assay volume of 50 µL. […] After an incubation time of 90 min, 50 µL of 0.4 mg/mL trypsin in trypsin buffer (50 mM Tris-HCl, pH 8.0, and 100 mM NaCl) was added, followed by further incubation at 37 °C for 30 min.

[2] = tested on: P. falciparum 3D7; assay: microbe, parasite or virus in culture; type: cell-based; conditions: Plasmodium falciparum, 3D7, 72 h; asexual blood stages, three days incubation; n ≥ 2 in duplicate, mean ± SD; read-out: Pf3D7 IC50
Description: (§1) [38, 39] […] After three days of incubation at 37 °C, 5% CO2 and 5% O2 plates were frozen until analyzed by HRP2-ELISA. All compounds were evaluated in duplicate in at least two independent experiments. The IC50 was determined by nonlinear regression analysis of log concentration-response curves using the drc-package v3.0.1 [40] of R v4.0.5..

[3] = tested on: P. falciparum Dd2; assay: microbe, parasite or virus in culture; type: cell-based; conditions: Plasmodium falciparum, DD2, 72 h, read-out: PfDd2 IC50
Description: as §1

[4] = tested on: NALM6 cells; assay: CellTiter-Glo cell viability assay, NALM6; type: cell-based, human; conditions: for IC50: Homo sapiens, NALM-6, B-ALL, 72 h, CellTiter-Glo, n = 3; for Selectivity index range healthy fibroblasts vs NALM6: SI = (healthy fibroblast IC50)/(leukemia cell line IC50), range over two fibroblasts
Description: (§2) Healthy individually-derived fibroblasts were cultured in DMEM supplemented with 10% FCS. Regular cell line authentication was performed short tandem repeat (STR) analysis (DNA fingerprinting), followed by comparison with the original DSMZ cell line database.
(§3) Cell viability assay was performed with leukemic cell lines after 72 h incubation with the respective inhibitors using ATP-based CellTiter-Glo luminescent assay (Promega, Madison, WI, USA).

[5] = tested on: MOLM13 cells; assay: CellTiter-Glo cell viability assay, MOLM13; type: cell-based, human; conditions: for IC50: Homo sapiens, MOLM-13, AML, 72 h, CellTiter-Glo, n = 3; for Selectivity index range healthy fibroblasts vs MOLM13: SI = (healthy fibroblast IC50)/(leukemia cell line IC50), range over two fibroblasts
Description: as §2, §3

[6] = tested on: Healthy Fibroblast 1; assay: Cytotoxicity against healthy fibroblast 1; type: cell-based; conditions: Homo sapiens, healthy individually-derived fibroblasts
Description: as §2, §3

[7] = tested on: acetylation of α-tubulin (marker of HDAC6 inhibition); assay: Immunoblotting, acetyl-α-tubulin in K562 cells; type: cell-based, human; conditions: 0.4 µM, 24 h
Description: (§4) K562 cells were treated with the indicated concentration of the compounds or vehicle control (DMSO) for 24 h. The recovered cell pellets were lysed with RIPA buffer (50 mM Tris-HCl pH 8.0, 1% Triton X-100, 0.5% sodium deoxycholate, 0.1% SDS, 150 mM sodium chloride, and 2 mM EDTA), supplemented with protease and phosphatase inhibitors (Thermofischer Scientific, Waltham, MA, USA). An equal amount of total protein (20 µg) was resolved by SDS-PAGE and followed by transfer on nitrocellulose membrane (Sigma-Aldrich). PageRuler prestained protein ladder, 10 kDa to 180 kDa (Thermofisher Scientific, Waltham, MA, USA) was used as a protein molecular weight marker.

[8] = tested on: acetylation of histone H3 (marker of HDAC1 inhibition); assay: Immunoblotting, acetyl-histone H3 in K562 cells; type: cell-based, human; conditions: 0.4 µM, 24 h
Description: as §4

[9] = tested on: artemisinin-sensitive P. falciparum Dd2; assay: Ring-stage survival assay (0–3 h), Dd2; type: cell-based; conditions: 700 nM, 6 h pulse; relative to DMSO control
Description: (§5) The effect of DHA–HDACi hybrids on artemisinin-resistant asexual stages of P. falciparum was assessed using the ring-stage survival assay as previously described with minor modifications. Briefly, mature schizonts of the artemisinin-sensitive strain Dd2 and the partial artemisinin-resistant strain Dd2 R539Twere isolated using magnetic column separation. The schizonts were then put with 10 mL complete medium and 200 µL 0^+ erythrocytes in a T-25 cell culture flask and incubated for exactly 3 h (37 °C, 5% O2, and 5% CO2). Next, parasites were synchronized with 5% (w/v) D-sorbitol solution yielding a culture containing only newly-invaded (0–3 h) ring-stage parasites.
(§6) Ring-stage parasites were added at 2% hematocrit and 0.5% parasitemia to a 48-well plate precoated with complete medium containing either DHA (Sigma-Aldrich) (positive control) or the tested DHA–HDACi hybrids at a final concentration of 700 nM or DMSO (negative control). […] Parasitemia was assessed by Giemsa-stained thin blood smears by two independent readers (10,000 erythrocytes per slide). If the results were discordant by more than 50%, a third independent read was conducted. The survival was calculated as the percentage of treated versus the untreated controls (DMSO). […] Means and standard deviations were calculated using Microsoft Excel. […]

[10] = tested on: P. falciparum Dd2 R539T; assay: In vitro P. falciparum growth inhibition assay (HRP2), Dd2 R539T; type: cell-based; conditions: Plasmodium falciparum, DD2, 72 h, read-out: PfDd2 R539T IC50
Description: Antiplasmodial activity of DHA–HDACi hybrids was evaluated against the asexual stages of the laboratory P. falciparum strains (3D7, chloroquine-sensitive strain, and Dd2, chloroquine-resistant strain, and Dd2 R539T (MRA-1255), provided by BEI Resources carrying a kelch13-mutation that conveys partial artemisinin resistance), using the histidine-rich protein 2 (HRP2) assay, as previously described. In brief: 96-well plates were precoated with the tested compounds in a three-fold serial dilution before ring-stage parasites were added in complete culture medium at a hematocrit of 1.5% and a parasitaemia of 0.05%. After three days of incubation at 37 °C, 5% CO2 and 5% O2 plates were frozen until analyzed by HRP2-ELISA. All compounds were evaluated in duplicate in at least two independent experiments. The IC50 was determined by nonlinear regression analysis of log concentration-response curves using the drc-package v3.0.1 [40] of R v4.0.5..

[11] = tested on: artemisinin-resistant P. falciparum Dd2 R539T; assay: Ring-stage survival assay (0–3 h), Dd2 R539T; type: cell-based; conditions: 700 nM, 6 h pulse; relative to DMSO control; compared with DHA
Description: as §5, §6

T1 sequence (Q13547 whole entry): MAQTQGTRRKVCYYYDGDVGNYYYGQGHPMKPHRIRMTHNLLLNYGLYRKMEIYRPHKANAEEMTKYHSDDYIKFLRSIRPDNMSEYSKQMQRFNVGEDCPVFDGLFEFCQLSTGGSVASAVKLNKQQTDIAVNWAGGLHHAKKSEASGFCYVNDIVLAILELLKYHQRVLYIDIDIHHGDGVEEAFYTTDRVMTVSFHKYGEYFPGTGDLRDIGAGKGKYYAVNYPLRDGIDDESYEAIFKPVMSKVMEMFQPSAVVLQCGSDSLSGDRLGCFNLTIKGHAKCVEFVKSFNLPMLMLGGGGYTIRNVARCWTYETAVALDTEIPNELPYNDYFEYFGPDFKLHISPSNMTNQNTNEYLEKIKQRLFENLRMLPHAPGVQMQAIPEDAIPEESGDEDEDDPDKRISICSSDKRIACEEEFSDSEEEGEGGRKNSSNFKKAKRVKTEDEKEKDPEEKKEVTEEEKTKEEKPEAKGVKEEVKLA

Row | SMILES | IC50 [1] | IC50 [2] | IC50 [3] | IC50 [4] | IC50 [5] | IC50 [6] | acetylation of α-tubulin (immunoblot) [7] | acetylation of histone H3 (immunoblot) [8] | survival of artemisinin-sensitive Dd2 parasites in ring-stage survival assay [9] | IC50 [10] | Selectivity index range healthy fibroblasts vs NALM6 [4] | Selectivity index range healthy fibroblasts vs MOLM13 [5] | survival of artemisinin-resistant Dd2 R539T parasites in ring-stage survival assay [11]
1 | C[C@H]1[C@@H](O)O[C@@H]2O[C@@]3(C)CC[C@H]4[C@H](C)CC[C@@H]1[C@@]24OO3 [DHA, dihydroartemisinin] | > 10000 nM | 3 ± 2.7 nM | 1.8 ± 0.02 nM | 2500 ± 160 nM | 690 ± 170 nM | > 25000 nM | affected the acetylation level neither of α-tubulin nor of histone H3 | affected the acetylation level neither of α-tubulin nor of histone H3 | ≤ 0.25% |  |  |  | 
2 | C[C@H]1[C@H](SCc2ccc(C(=O)NO)cc2)O[C@@H]2O[C@@]3(C)CC[C@H]4[C@H](C)CC[C@@H]1[C@@]24OO3 [(β)-7c, N-Hydroxy-4-((((3R,5aS,6R,8aS,9R,10S,12S,12aR)-3,6,9-trimethyldecahydro-12H-3,12-epoxy[1,2]dioxepino[4,3-i]isochromen-10-yl)thio)methyl)benzamide] | 2790 ± 140 nM | 3.6 ± 1.1 nM | 3.2 ± 0.02 nM | 250 ± 10 nM | 380 ± 70 nM | 14700 ± 3420 nM | induced acetylation of α-tubulin | did not induce acetylation of histone H3 |  | 2.6 ± 2 nM | 59-71 | 39-47 | 
3 | C[C@H]1[C@@H](SCc2ccc(C(=O)NO)cc2)O[C@@H]2O[C@@]3(C)CC[C@H]4[C@H](C)CC[C@@H]1[C@@]24OO3 [(α)-7c, N-Hydroxy-4-((((3R,5aS,6R,8aS,9R,10R,12S,12aR)-3,6,9-trimethyldecahydro-12H-3,12-epoxy[1,2]dioxepino[4,3-i]isochromen-10-yl)thio)methyl)benzamide] | 2000 ± 200 nM | 3.3 ± 1.4 nM | 3.4 ± 0.12 nM | 280 ± 50 nM | 330 ± 110 nM | 12690 ± 120 nM |  |  |  | 3.3 ± 2.2 nM | 27-45 | 23-39 | significantly more active than DHA alone; also recorded: lowest survival
4 | C[C@@H]1CC[C@H]2[C@@H](C)C(OCc3ccc(/C=C/C(=O)NO)cc3)O[C@@H]3O[C@@]4(C)CC[C@@H]1[C@]32OO4 (stereo partly drawn) [Compound 7a, (E)-N-Hydroxy-3-(4-((((3R,5aS,6R,8aS,9R,12R,12aR)-3,6,9-trimethyldecahydro-12H-3,12-epoxy[1,2]dioxepino[4,3-i]isochromen-10-yl)oxy)methyl)phenyl)acrylamide] | 546 ± 0.3 nM | 2.6 ± 1.4 nM | 1.7 ± 0.92 nM | 150 ± 10 nM | 220 ± 40 nM | 13100 ± 100 nM |  |  |  | 1.9 ± 1.4 nM | 42-87 | 29-60 | 
